Measured values published in publication PMC7470102, “Synthesis, anticancer evaluation and molecular docking studies of new benzimidazole- 1,3,4-oxadiazole derivatives as human topoisomerase types I poison” (Journal of Enzyme Inhibition and Medicinal Chemistry, 2020).

How the values were obtained:
[1] = test system: NIH3T3 (mouse embryo fibroblast cell line); assay: MTT cytotoxicity assay, NIH3T3 healthy cells; assay type: cell-based; details: Mus musculus, read-out: IC50 against NIH3T3
Method: (§1) The anticancer activity of compounds 5a–5o were screened according to the MTT assays. The MTT assays were performed as previously described[32]^,[33]. Anticancer activity of final compounds was assessed against five different cancer cell lines A549 (lung carcinoma cell line), HeLa (cervical cell line), MCF-7 (human breast adenocarcinoma cell line), HepG2 (human liver carcinoma cell line) and C6 (rat glioma cell line) cell lines as well as NIH3T3 (mouse embryo fibroblast cell line). Doxorubicin and Hoechst 33342 were used as the reference drugs in the MTT assays. It is crucial that an anticancer agent affects the cancer cell line but having minimal or no side-effect on healthy cells. For this purpose, the cytotoxic effects of the active compounds on the NIH3T3 cell line were investigated (Table 2).

Topoisomerase I = target: T1, Topoisomerase I (Homo sapiens, UniProt P11387); assay: DNA topoisomerase I assay (relaxation of supercoiled plasmid DNA, agarose gel); assay type: biochemical; details: agarose gel electrophoresis, camptothecin positive control, Figure 12
T1 construct: purchased TopoGen TG1018-2
T1 sequence (P11387 1-765): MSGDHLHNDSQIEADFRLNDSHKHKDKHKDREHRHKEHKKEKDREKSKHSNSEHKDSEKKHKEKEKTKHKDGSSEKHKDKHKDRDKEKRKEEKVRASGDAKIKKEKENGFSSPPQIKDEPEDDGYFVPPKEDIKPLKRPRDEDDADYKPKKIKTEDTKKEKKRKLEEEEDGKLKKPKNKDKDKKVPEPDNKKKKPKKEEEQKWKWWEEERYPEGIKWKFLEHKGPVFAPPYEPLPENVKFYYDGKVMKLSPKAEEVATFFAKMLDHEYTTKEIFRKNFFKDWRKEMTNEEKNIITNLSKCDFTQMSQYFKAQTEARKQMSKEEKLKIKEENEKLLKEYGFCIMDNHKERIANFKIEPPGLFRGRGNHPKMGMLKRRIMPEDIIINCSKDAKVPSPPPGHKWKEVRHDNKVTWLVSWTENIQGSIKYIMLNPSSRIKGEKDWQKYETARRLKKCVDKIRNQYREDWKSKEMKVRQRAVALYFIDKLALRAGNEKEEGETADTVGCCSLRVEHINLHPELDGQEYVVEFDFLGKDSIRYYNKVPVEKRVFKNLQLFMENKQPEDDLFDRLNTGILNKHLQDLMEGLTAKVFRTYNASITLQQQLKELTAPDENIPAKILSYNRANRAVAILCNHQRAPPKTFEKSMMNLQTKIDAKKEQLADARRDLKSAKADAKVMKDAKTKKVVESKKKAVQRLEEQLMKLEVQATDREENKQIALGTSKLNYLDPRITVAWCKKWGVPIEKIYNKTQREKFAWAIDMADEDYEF
Method: The topoisomerase I inhibition activities of final compounds were measured as relaxation of supercoiled plasmid DNA using agarose gel electrophoresis and camptothecin was used as a positive control. The assay was carried out in a final volume of 20 µl reaction volume containing 2 µl of 10xTGS Buffer, 6 µl water, 2 µl supercoiled plasmid DNA, 2 µl test compound, 2 µl of Top1, 2 ul 10% SDS, 2 µl proteinase K, 2 µl DNA loading dye. After incubation of reaction mixtures at 37 °C for 30 min, electrophoresis was done on a 1% agarose gel at a potential 50 V for 75 min using 1xTAE buffer.
To determine whether the DNA intercalation properties of compounds 5a, 5b, 5d, 5e, 5k, 5l, 5n and 5o might result in Topo I inhibition, agarose gel electrophores is assay was performed to evaluate the Topo I inhibitory activity of them via agarose-gel electrophoresis and CPT was used as the positive control. The TopoGEN Topoisomerase I Drug Screening Kit were optimised and implemented to accomplish this goal.
In a previous studies, it was said that the compounds poisoning topoisomerase caused the formation of nick bands in such gel appearances, while the formation of Supercoiled bands was said to be caused by catalytic inhibitors that bound to either DNA or enzyme[40]^,[41].

C6 cell line = assay: Flow cytometric analysis (Annexin V/PI), C6; assay type: cell-based, rat; details: at IC50 concentrations
Method: Death pathway of the carcinogenic cell lines was detected by Annexin V-FITC Apoptosis Detection Kit (BD, Pharmingen) as reported previously described. […] FCS Express software was used to display the percent of normal and apoptotic cells at different stages. […] The experiments were carried out in triplicates.
Annexin V/PI staining on tested cancer cells treated with the active compounds was performed to investigate induction of apoptosis. […] According to the MTT assay, compound 5n for A549 cell line; compounds 5a, 5d, 5e, 5o for MCF-7 cell line; compound 5k for C6 cell line; compound 5a for HepG2 cell line; compounds 5b, 5l and 5n for HeLa cell line were selected for the flow cytometric analysis. Furthermore, flow cytometry studies were performed for reference drug doxorubicin. Flow cytometric analysis diagrams of tested compounds and doxorubicin at IC50/2, IC50, and 2xIC50 concentrations on cancer cells were presented in Figures 7–11.

[2] = test system: C6 (rat glioma cell line); assay: MTT cytotoxicity assay, C6; assay type: cell-based; details: Rattus norvegicus, read-out: IC50 against C6
Method: as §1, with “assays.” for “assays. It is crucial that an anticancer agent affects the cancer cell line but having minimal or no side-effect on healthy cells. For this purpose, the cytotoxic effects of the active compounds on the NIH3T3 cell line were investigated (Table 2).”
(§2) The benzimidazole-1,3,4-oxadiazole derivatives (5a-5o) were tested their cytotoxic effects in vitro using five cancer cell line A549 (lung carcinoma cell line), HeLa (cervical cell line), MCF-7 (human breast adenocarcinoma cell line), HepG2 (human liver carcinoma cell line) and C6 (rat glioma cell line) cell lines as well as NIH3T3 (mouse embryo fibroblast cell line). Doxorubicin and Hoechst 33342 were used for this study as a reference drugs.

[3] = test system: A549 (lung carcinoma cell line); assay: MTT cytotoxicity assay, A549; assay type: cell-based; details: Homo sapiens, A549, MTT assay, read-out: IC50 against A549
Method: as §1, with “assays.” for “assays. It is crucial that an anticancer agent affects the cancer cell line but having minimal or no side-effect on healthy cells. For this purpose, the cytotoxic effects of the active compounds on the NIH3T3 cell line were investigated (Table 2).”
as §2

[4] = test system: HeLa (cervical cell line); assay: MTT cytotoxicity assay, HeLa; assay type: cell-based; details: Homo sapiens, read-out: IC50 against HeLa
Method: as §1, with “assays.” for “assays. It is crucial that an anticancer agent affects the cancer cell line but having minimal or no side-effect on healthy cells. For this purpose, the cytotoxic effects of the active compounds on the NIH3T3 cell line were investigated (Table 2).”
as §2

[5] = test system: HepG2 (human liver carcinoma cell line); assay: MTT cytotoxicity assay, HepG2; assay type: cell-based; details: Homo sapiens, read-out: IC50 against HepG2
Method: as §1, with “assays.” for “assays. It is crucial that an anticancer agent affects the cancer cell line but having minimal or no side-effect on healthy cells. For this purpose, the cytotoxic effects of the active compounds on the NIH3T3 cell line were investigated (Table 2).”
as §2

C6 cells = assay: DNA synthesis inhibition assay (BrdU), C6; assay type: cell-based, rat; details: lower dose (IC50/2), 48 h vs 24 h incubation
Method: The BrdU cell proliferation method was performed to analyse the effects of the active compounds on proliferation of cancer cells. Cancer cells were seeded into the 96-well plates at a density of 1 × 10^4 cells. Compounds were added into the each well at three different concentrations (IC50/2, IC50 and 2xIC50) and the plates were incubated for 24 h. At the end of the incubation period, BrdU solution was added and cells were reincubated for 2 h at 37 °C. Anti-BrdU-POD ([…]) was added and the mixture was incubated for 90 min. Microplates were washed with PBS for three times. After adding substrate solution, the mixture was incubated for 15 min. OD of the wells were determined at 492 nm. Proliferation of control cells was assessed as 100% and growth inhibition % of cells, treated with test compounds and […] were calculated.
According to the MTT assay, compound 5n for A549 cell line; compounds 5a, 5d, 5e, 5o for MCF-7 cell line; compound 5k for C6 cell line; compound 5a for HepG2 cell line; compounds 5b, 5l and 5n for HeLa cell line were selected for the DNA synthesis inhibition assay. A549, C6, MCF-7, HepG2 and HeLa cells were incubated with three different concentrations (IC50/2, IC50, and […]) of the compounds for 24 and 48 h time periods. […] Doxorubicin was used as positive control.

[6] = test system: MCF-7 (human breast adenocarcinoma cell line); assay: MTT cytotoxicity assay, MCF-7; assay type: cell-based; details: Homo sapiens, MCF7, MCF-7 cell line, read-out: IC50 against MCF-7
Method: as §1, with “assays.” for “assays. It is crucial that an anticancer agent affects the cancer cell line but having minimal or no side-effect on healthy cells. For this purpose, the cytotoxic effects of the active compounds on the NIH3T3 cell line were investigated (Table 2).”
as §2

CCOc1ccc(-c2nc3ccc(-c4nnc(SCC(=O)N5CCN(C)CC5)o4)cc3[nH]2)cc1 [5k, 2-((5-(2-(4-Ethoxyphenyl)-1H-benzo[d]imidazol-6-yl)-1,3,4-oxadiazol-2-yl)thio)-1–(4-methyl-piperazin-1-yl)-ethane-1-on] was tested, and the IC50 [1] was 74.6 ± 3.63 µM, the “Topo I inhibition activity” value (Topoisomerase I) was “potent topo I inhibition activity” and the “percentage of apoptotic cells” value (C6 cell line) was 12.3%. It also gave an IC50 [2] of 3.2 ± 0.152 µM, an IC50 [3] of 22.3 ± 1.05 µM and an IC50 [4] of 11.2 ± 0.467 µM. For the same compound, the IC50 [5] was no less than 100 µM, the “DNA synthesis inhibition at 48 h relative to 24 h” value (C6 cells) was “eight times higher” and the IC50 [6] was 38.7 ± 1.88 µM.
